Data taken from patent US5164376A, “Method for treating retroviral infections with aryl-(2-pyrryl) keytone compound” (Hoffmann-LaRoche Inc., priority 1990, dated 1992).
“Also recorded” adds a separate entry of the source.

Key:
[1] = system: TAT; experiment: anti-TAT assay: SeAP reporter gene expression under control of HIV-LTR in COS cells co-transfected with TAT; format: cell-based; settings: 1, 10 and 100 μM added 24 h post transfection, assayed 48 h later, three independent assays, values only in FIG. I
Text: FIG. I: Illustrates anti-TAT activity of Compound II. COS cells are co-transfected with TAT and Secreted Alkaline Phosphatase (SeAP) genes. The SeAP gene, under the control of the HIV-LTR (responsive to TAT activation) or the RSV-LTR (unresponsive to TAT action) serves as a monitor or reporter gene. SeAP activity in the HIV-LTR combination but not the RSV-LTR combination serves as a measure of TAT activity. Cells containing the RSV-LTR co-transfected gene combination serve as an indicator of the non-specific toxicity of added test compounds. The black bars represent the percent inhibition of SeAP activity by Compound II when the SeAP gene is under the control of HIV-LTR. The hatched bars represent the effect of […] on SeAP activity when the SeAP gene is regulated by RSV-LTR. […] The figure includes results from three separate assays.
Compound II was tested for anti-TAT activity in an anti-TAT assay described in copending patent application Case Docket No. 8320 filed on the same day as the instant application and hereby incorporated by reference. […] The anti-TAT activity is measured by the percent inhibition of SeAP gene expression under the control of HIV-LTR.

[2] = system: COS cells; experiment: parallel cytotoxicity assay: SeAP gene expression under control of RSV-LTR (unresponsive to TAT) in COS cells; format: cell-based; settings: values only in FIG. I
Procedure: At 24 hours post transfection 1, 10, and 100 μM of test compound was added to the culture media of COS cells transfected with two plasmids, one containing the reporter gene which codes for Secreted Alkaline Phosphatase (SeAP) under control of HIV-LTR, and other containing the TAT gene also under control of HIV-LTR. The alkaline phosphatase activity of the media was assayed 48 hours after addition of test compound. […] The anti-TAT activity is measured by the percent inhibition of SeAP gene expression under the control of HIV-LTR.

[3] = system: HIV-1 NIT strain; experiment: inhibition of HIV-cytopathic effect in infected CD4+ CEM cells (live-cell count by trypan blue exclusion); format: cell-based; settings: MOI=1, 4 days, values only in FIG. II
Procedure: (§1) FIGS. II Illustrates the anti-HIV activity of Compound II when tested according to the protocol set forth in Example 2. The open bars and the hatch bars are live-cell counts of infected and uninfected cells respectively. The filled circles are percentage of cell which were stained with antibody from AIDS patients. The duration of treatment for compound II was 4 days.
(§2) High titer virus stocks (HIV-1 NIT strain) were grown in CD4^+ CR1O cells in RMPI-1640 media (Gibco Laboratories) supplemented with 10% fetal calf serum and 0.1 mg/ml Gentamicin. The collected media were filtered through a 0.8 Micron filter and virus isolates were concentrated 100 fold and stored at -80° C.
(§3) CD4^+ CEM cells, propagated in the same medium, were incubated for 60 minutes at 37° C. with diluted stock virus at MOI=1. Cells were washed three times with phosphate buffered saline and resuspended in the medium at 2 x 10^5 cells/ml. Various quantities of Compound II were added. Four days after infection, numbers of live cells were counted by trypan blue exclusion [Mitsuya, et al. Proc. Natl. Acad. Sci. 83:1911 (1986)]. At the same time, aliquots of cells were fixed with acetone and stained with antibodies from AIDS patients, followed by a second staining with fluorescein-conjugated goat anti-human IgG (Cappel). […]

[4] = system: HIV-1 NIT strain; experiment: inhibition of viral antigen production (percentage of cells stained with antibodies from AIDS patients); format: cell-based; settings: CEM cells, MOI=1, 4 days; values only in FIG. II
Procedure: as §1, §2, §3

[5] = system: HIV; settings: most patients; cited from earlier work

## NCC(=O)Nc1ccc(Cl)cc1C(=O)c1ccc[nH]1 [Compound II, 2-glycinamido-5-chlorophenyl (2-pyrryl) ketone]
[1]
  anti-TAT activity (inhibition of SeAP gene expression under HIV-LTR): exhibits anti-TAT activity; also recorded: specific inhibitor of TAT
[2]
  nonspecific toxicity (effect on SeAP activity under RSV-LTR): does not exhibit nonspecific autotoxicity
[3]
  inhibition of HIV-cytopathic effect: inhibition of HIV-cytopathic effect
[4]
  inhibition of viral antigen production: inhibition of HIV-cytopathic effect and viral antigen production

## Nc1ccn([C@H]2CC[C@@H](CO)O2)c(=O)n1 [ddC]
[5]
  virustatic range (dose): 0.005-0.25 mg/kg body weight
